Data: patent publication US6143780A, “N-arylmethylthioanilide compounds useful for the inhibition of the replication of HIV” (Uniroyal Chemical Company, Inc., priority 1999, dated 2000)
In brackets after ≈: the same amount, converted by molar mass. Several values for one entry are separate records, joined by “and”; a condition that tells them apart may be missing. Equal values may be shown once. Read-outs that look alike come from different tables or passages of the source.

How the values were obtained:
Format in all cases: cell-based
HIV-1 (IIIB) = test: inhibition of HIV-1(IIIB) (WT) induced syncytium formation in CEM cells
Text: (§1) CEM cells were obtained from the American Tissue Cell Culture Collection (Rockville, Md.) . HIV-1 (IIIB) was originally obtained from the culture supernatant of persistently HIV-1-infected H9 cells and was provided by R. C. Gallo and M. Popovic (National Cancer Institute, National Institutes of Health, Bethesda, Md.).
(§2) CEM cells were suspended at ≈300,000 cells per ml of culture medium and infected with approximately 100 CCID50 (CCID50 being the 50% cell culture infective dose) of HIV-1(IIIB) (designated as "WT" in Table 3) or one of the HIV-1 RT mutant strains described above. Then 100 μl of the infected cell suspensions was added to 200 μl microtiter plate wells containing 100 μl of appropriate serial (5-fold) dilutions of the test compounds. The inhibitiory effect of the test compounds on HIV-1 induced syncytium formation in CEM cells was examined microscopically on day 4 post infection. The 50% effective concentration (EC50) was defined as the test compound concentration that inhibits syncytium formation in the HIV-1-infected cell cultures by 50%.

HIV-1/100-Ile = test: inhibition of syncytium formation in CEM cells, HIV-1 RT mutant 100-Ile; conditions: Human immunodeficiency virus 1, CCRF-CEM, 96 h, read-out: EC50 100-Ile
Text: as §1
(§3) The selection and characterization of the HIV-1 RT mutant strains were done as follows: HIV-1/100-Ile ("100-Ile") was selected for resistance against TIBO R82150 as described in Balzarini et al, Virology 192: 246-253 (1993); HIV-1/103-Asn ("103-Asn") was selected for resistance against TIBO R82913 as described in Balzarini et al, Virology 192: 246-253 (1993); HIV-1/106-Ala ("106-Ala") was selected for resistance against nevirapine as described in Balzarini et al, J. Virol. 67: 5353-5359 (1993); HIV-1/Lys-138 ("Lys-138") was selected for resistance against TSAO-m^3T as described in Balzarini et al, Virology 192: 246-253 (1993) and Balzarini et al, Proc. Nat. Acad. Sci. USA 90: 6952-6956 (1993); HIV-1/181-Cys ("181-Cys") was selected for resistance against pyridinone L-697,661 as described in Balzarini et al, Virology 192: 246-253 (1993); and HIV-1/188-His ("188-His") was selected for resistance against HEPT as described in Balzarini et al, Mol. Pharmocol. 44: 694-701 (1993). 188-His was then further converted to HIV-1/188-Leu ("188-Leu") upon further passage in cell culture in the absence of the HEPT. HIV-1/101-Glu ("101-Glu") and HIV-1/190-Glu ("190-Glu") were selected for resistance against the thiocarboxanilide derivative designated as UC38 as described in Balzarini et al, Antiviral Research 27: 219-236 (1995). HIV-1/184-Ile ("184-Ile") was selected for resistance against the combination of 3TC and TSAO-m^3 T as described in Balzarini et al, Molecular Pharm. 49: 882-890 (1996). HIV-1/184-Val ("184-Val") was selected for resistance against 3TC as described in Balzarini et al, Molecular Pharm. 49: 882-890 (1996).
as §2

HIV-1/101-Glu = test: inhibition of syncytium formation in CEM cells, HIV-1 RT mutant 101-Glu; conditions: Human immunodeficiency virus 1, CCRF-CEM, 96 h, read-out: EC50 101-Glu
Text: as §1, §3, §2

103-Ala = test: inhibition of syncytium formation in CEM cells, HIV-1 RT mutant 103-Ala; conditions: Human immunodeficiency virus 1, CCRF-CEM, 96 h, read-out: EC50 103-Ala
HIV-1/106-Ala = test: inhibition of syncytium formation in CEM cells, HIV-1 RT mutant 106-Ala; conditions: Human immunodeficiency virus 1, CCRF-CEM, 96 h, read-out: EC50 106-Ala
Text: as §1, §3, §2

138-Lys = test: inhibition of syncytium formation in CEM cells, HIV-1 RT mutant 138-Lys; conditions: Human immunodeficiency virus 1, CCRF-CEM, 96 h, read-out: EC50 138-Lys
Text: as §1, §3, §2

HIV-1/181-Cys = test: inhibition of syncytium formation in CEM cells, HIV-1 RT mutant 181-Cys; conditions: Human immunodeficiency virus 1, CCRF-CEM, 96 h, read-out: EC50 181-Cys
Text: as §1, §3, §2

HIV-1/184-Ile = test: inhibition of syncytium formation in CEM cells, HIV-1 RT mutant 184-Ile; conditions: Human immunodeficiency virus 1, CCRF-CEM, 96 h, read-out: EC50 184-IIe
Text: as §1, §3, §2

HIV-1/184-Val = test: inhibition of syncytium formation in CEM cells, HIV-1 RT mutant 184-Val; conditions: Human immunodeficiency virus 1, CCRF-CEM, 96 h, read-out: EC50 184-Val
Text: as §1, §3, §2

HIV-1/188-His = test: inhibition of syncytium formation in CEM cells, HIV-1 RT mutant 188-His; conditions: Human immunodeficiency virus 1, CCRF-CEM, 96 h, read-out: EC50 188-His
Text: as §1, §3, §2

HIV-1/188-Leu = test: inhibition of syncytium formation in CEM cells, HIV-1 RT mutant 188-Leu; conditions: Human immunodeficiency virus 1, CCRF-CEM, 96 h, read-out: EC50 188-Leu
Text: as §1, §3, §2

HIV-1/190-Glu = test: inhibition of syncytium formation in CEM cells, HIV-1 RT mutant 190-Glu; conditions: Human immunodeficiency virus 1, CCRF-CEM, 96 h, read-out: EC50 190-Glu
Text: as §1, §3, §2

[1] = Human immunodeficiency virus 1, IIIB, CCRF-CEM, 96 h, Table 3, HIV-1(IIIB), day 4 post infection, read-out: EC50 WT
[2] = Table 2, day 4 post infection, replicate values, read-out: EC50, Activity Against HIV-1 (IIIB)
[3] = Human immunodeficiency virus 1, IIIB, CCRF-CEM, 96 h, Table 2, day 4 post infection, replicate values, read-out: EC50, Activity Against HIV-1 (IIIB)

| SMILES | EC50 (HIV-1 (IIIB); [1]) [µg/mL] | EC50 (HIV-1 (IIIB); [2]) | EC50 (HIV-1/100-Ile) [µg/mL] | EC50 (HIV-1/101-Glu) [µg/mL] | EC50 (103-Ala) [µg/mL] | EC50 (HIV-1/106-Ala) [µg/mL] | EC50 (138-Lys) [µg/mL] | EC50 (HIV-1/181-Cys) [µg/mL] | EC50 (HIV-1/184-Ile) [µg/mL] | EC50 (HIV-1/184-Val) [µg/mL] | EC50 (HIV-1/188-His) [µg/mL] | EC50 (HIV-1/188-Leu) [µg/mL] | EC50 (HIV-1/190-Glu) [µg/mL] | EC50 (HIV-1 (IIIB); [3]) [nM] |
| --- | --- | --- | --- | --- | --- | --- | --- | --- | --- | --- | --- | --- | --- | --- |
| CCCc1ccccc1OCc1cc(NC(=S)c2ccoc2C)ccc1Cl [Compound 43] | 0.03 | 42.5 nM and 118 nM | 1.14 | 1.35 | > 2 | > 2 | 0.31 | > 0.4 | 0.13 | 0.04 | 0.65 | > 2 | > 2 |  |
| Cc1ccccc1OCc1cc(NC(=S)c2ccoc2C)ccc1Cl [Compound 8] | 0.022 |  | 0.33 | 1.5 | 2 (≈ 5.38 µM) | 1 | 0.19 | 0.95 | 0.065 | 0.02 | 0.5 | 0.7 | ≥ 2 | 107 |
| Cc1occc1C(=S)Nc1ccc(Cl)c(COc2ccc(F)cc2Cl)c1 [Compound 47] | 0.018 | 516 nM | 0.65 | 1.47 | > 2 | > 2 | 0.64 | 1 | 0.12 | 0.05 | 2 | > 2 | > 2 | 1030 |
| Cc1occc1C(=S)Nc1ccc(Cl)c(COc2cccc(C(F)(F)F)c2)c1 [Compound 5] | 0.5 | 4110 nM and 3840 nM | > 2 | > 2 | > 2 |  | 1.73 | 0.33 | > 2 | 0.93 | > 2 |  | > 2 | 3880 |
| Cc1occc1C(=S)Nc1ccc(Cl)c(COc2ccccc2C(F)(F)F)c1 [Compound 46] | 0.0041 | 39.3 nM and 54.8 nM and 9.14 nM | 0.11 | 0.18 | 0.55 (≈ 1.29 µM) | 0.47 | 0.03 | 0.5 | 0.018 | 0.0093 | 0.16 | 0.19 | > 2 |  |
| Cc1occc1C(=S)Nc1ccc(Cl)c(COc2c(F)ccc(F)c2F)c1 [Compound 45] | 0.0017 |  | 0.11 | 0.04 | 0.4 (≈ 0.971 µM) | 0.025 | 0.012 | 0.065 | 0.005 | 0.0027 | 0.85 | 1.5 | > 2 |  |
| Cc1occc1C(=S)Nc1ccc(Cl)c(COc2ccccc2CO)c1 [Compound 25] | 0.55 | 3140 nM and 1090 nM and 1490 nM and 1150 nM and 1000 nM | > 2 | > 2 | > 2 | > 2 | > 2 | > 2 | 1 | 0.25 | > 2 | > 2 | > 2 |  |
| Cc1occc1C(=S)Nc1ccc(Cl)c(COc2ccccc2C#N)c1 [Compound 30] | 0.006 | 68.7 nM and 103 nM | 0.33 | 0.63 | > 2 | 0.7 | 0.042 | 0.65 | 0.03 | 0.021 | 0.35 | 0.85 | > 2 | 63.5 |
